The source of these data is US11851710B2, “Methods and materials for identifying metastatic malignant skin lesions and treating skin cancer” (Mayo Foundation for Medical Education and Research, priority 2014, dated 2023).

Common to all, as to type: cell-based
One assay deals with ERK. The assay is described as follows: ERK activity (phospho-ERK) by Western blotting after overnight drug incubation. Conditions: WM858 melanoma cells, 5 μM. The procedure: (§1) FIGS. 13A-13P illustrate B-raf^V600E inhibits FAK to promote integrin surface expression. FIG. 13A: shRNAs 841, 102 and NC were induced in WM858 cells by IPTG for 5 days (n=4) followed by RNA quantitation. Genes regulated at 0 vs. 0.05 mM IPTG in 841 and 102 but not NC cells are shown. These were: ITGB3 (orange), FAK (blue). Light orange, light blue: up- or down-regulation, respectively, by either 841 or 102 shRNA. FIG. 13B: WM858 cells were transfected with FAK or EGFP cDNA. Regulated genes, FAK over EGFP cells, are shown in orange (up) or blue (down) (n=4). FIG. 13C: Flow cytometry of NC, 841 and 102 cells (un-induced vs. 0.05 mM IPTG for 5 days). FIG. 13D: Integrin cell surface mean intensities; mean.+−.s.d.; n=3; *, p<0.05; p values, Student's t-test; ns, not significant. FIG. 13E: Visualization of focal adhesions by paxillin staining on micropatterned fibronectin disks. […] FIGS. 13M-13O: FAK/ERK levels in NHM and WM858 after overnight drug incubation (FIG. 13M); quantification of FAK (FIG. 13N) and ERK phosphorylation (FIG. 13O); mean.+−.s.d.; n=4; *, p<0.05; p values, Student's t-test. […]
(§2) PYK2, a FAK-like tyrosine kinase, could not be detected in WM858 cells, irrespective of endogenous FAK levels. WM858 cells carrying control (NC) or FAK-specific shRNAs (841 and 102) were then exposed to IPTG for 5 days, and changes in adhesion gene expression were subsequently quantified by PCR. […]
(A western blot detects proteins with antibodies after separation by electrophoresis.)

A further assay deals with T1, FAK (Homo sapiens, UniProt Q05397).
T1 construct: FAK/ERK levels in NHM and WM858 after overnight drug incubation; endogenous in cells; host or cells: WM858 melanoma cells and NHM
The assay is described as follows: FAK Y397 auto-phosphorylation by Western blotting after overnight drug incubation. To be noted: melanoma cells, 5 μM. The procedure: as §1, §2

The next assay has as its system β3 integrin. The assay is described as follows: Cell surface β3 integrin expression by flow cytometry after overnight drug incubation. Conditions: 5 μM. The protocol: (§3) FIGS. 13A-13P illustrate B-raf^V600E inhibits FAK to promote integrin surface expression. FIG. 13A: shRNAs 841, 102 and NC were induced in WM858 cells by IPTG for 5 days (n=4) followed by RNA quantitation. Genes regulated at 0 vs. 0.05 mM IPTG in 841 and 102 but not NC cells are shown. These were: ITGB3 (orange), FAK (blue). Light orange, light blue: up- or down-regulation, respectively, by either 841 or 102 shRNA. FIG. 13B: WM858 cells were transfected with FAK or EGFP cDNA. Regulated genes, FAK over EGFP cells, are shown in orange (up) or blue (down) (n=4). FIG. 13C: Flow cytometry of NC, 841 and 102 cells (un-induced vs. 0.05 mM IPTG for 5 days). FIG. 13D: Integrin cell surface mean intensities; mean.+−.s.d.; n=3; *, p<0.05; p values, Student's t-test; ns, not significant. FIG. 13E: Visualization of focal adhesions by paxillin staining on micropatterned fibronectin disks. FIGS. 13F and 13G: Proliferation speed in the absence (FIG. 13F) or presence (FIG. 13G) of FAK shRNAs; mean.+−.s.d.; n=8; *, p<0.05; p values, Student's t-test; ns, not significant. FIGS. 13H and 13I: Scratch wound healing in IPTG-induced cells; representative experiment (n=3). FIGS. 13J and 13K: Effect of IPTG-induced FAK knock-down on total (t) and phospho (p)-ERK; mean.+−.s.d.; n=4; *, p<0.05; p values, Student's t-test. FIG. 13L: Cell surface β1 and β3 integrin expression (flow cytometry) in B-raf^V600E and wild-type cells after overnight drug incubation; % expression relative to DMSO is shown. FIGS. 13M-13O: FAK/ERK levels in NHM and WM858 after overnight drug incubation (FIG. 13M); quantification of FAK (FIG. 13N) and ERK phosphorylation (FIG. 13O); mean.+−.s.d.; n=4; *, p<0.05; p values, Student's t-test. FIG. 13P: ERK activity in NC, 841 and 102 cells (0.05 mM IPTG for 5 days) after overnight drug incubation.
Isopropyl β-D-1-thiogalactopyranoside (IPTG), 4′,6-Diamidino-2-phenylindole dihydrochloridemitomycin (DAPI), blebbistatin and PF-573228 were purchased from Sigma-Aldrich. Dabrafenib (GSK2118436) was purchased from Selleckchem. FAK antibody (06-543) was from EMD MILLIPORE®. FAK pY397 (44624G) antibody was from Life Technologies. Total ERK (9102) and phospho-ERK (4370) antibodies were from Cell Signaling. Paxillin (610051), ITGB3 (555754), ITGB1 (555443) and mouse IgG1 kappa (555749) antibodies were from BD Transduction Labs. Drugs were used at 5 μM final concentration. EGFP control cDNA was from (Lonza). […]
as §2
(Flow cytometry measures light scatter and fluorescence of single cells or particles in a stream.)

For the next assay, the system named is β1 integrin. The assay is described as follows: Cell surface β1 integrin expression by flow cytometry after overnight drug incubation. Conditions: 5 μM. The protocol: as §3
Isopropyl β-D-1-thiogalactopyranoside (IPTG), 4′,6-Diamidino-2-phenylindole dihydrochloridemitomycin (DAPI), blebbistatin and PF-573228 were purchased from Sigma-Aldrich. Dabrafenib (GSK2118436) was purchased from Selleckchem. FAK antibody (06-543) was from EMD MILLIPORE®. FAK pY397 (44624G) antibody was from Life Technologies. Total ERK (9102) and phospho-ERK (4370) antibodies were from Cell Signaling. Paxillin (610051), ITGB3 (555754), ITGB1 (555443) and mouse IgG1 kappa (555749) antibodies were from BD Transduction Labs. Drugs were used at 5 μM final concentration. EGFP control cDNA was from (Lonza). FAK cDNA was obtained from A. Huttenlocher, Addgene plasmid number 35039 (Chan et al., J. Biol. Chem., 285:11418-26 (2010)).
PYK2, a FAK-like tyrosine kinase, could not be detected in WM858 cells, irrespective of endogenous FAK levels. WM858 cells carrying control (NC) or FAK-specific shRNAs (841 and 102) were then exposed to IPTG for 5 days, and changes in adhesion gene expression were subsequently quantified by PCR. […] Moreover, Dabrafenib-induced blockage of ERK activity could be partially reversed by a complete FAK knock-down in 102 cells (FIG. 13P).

T1 sequence (Q05397 whole entry): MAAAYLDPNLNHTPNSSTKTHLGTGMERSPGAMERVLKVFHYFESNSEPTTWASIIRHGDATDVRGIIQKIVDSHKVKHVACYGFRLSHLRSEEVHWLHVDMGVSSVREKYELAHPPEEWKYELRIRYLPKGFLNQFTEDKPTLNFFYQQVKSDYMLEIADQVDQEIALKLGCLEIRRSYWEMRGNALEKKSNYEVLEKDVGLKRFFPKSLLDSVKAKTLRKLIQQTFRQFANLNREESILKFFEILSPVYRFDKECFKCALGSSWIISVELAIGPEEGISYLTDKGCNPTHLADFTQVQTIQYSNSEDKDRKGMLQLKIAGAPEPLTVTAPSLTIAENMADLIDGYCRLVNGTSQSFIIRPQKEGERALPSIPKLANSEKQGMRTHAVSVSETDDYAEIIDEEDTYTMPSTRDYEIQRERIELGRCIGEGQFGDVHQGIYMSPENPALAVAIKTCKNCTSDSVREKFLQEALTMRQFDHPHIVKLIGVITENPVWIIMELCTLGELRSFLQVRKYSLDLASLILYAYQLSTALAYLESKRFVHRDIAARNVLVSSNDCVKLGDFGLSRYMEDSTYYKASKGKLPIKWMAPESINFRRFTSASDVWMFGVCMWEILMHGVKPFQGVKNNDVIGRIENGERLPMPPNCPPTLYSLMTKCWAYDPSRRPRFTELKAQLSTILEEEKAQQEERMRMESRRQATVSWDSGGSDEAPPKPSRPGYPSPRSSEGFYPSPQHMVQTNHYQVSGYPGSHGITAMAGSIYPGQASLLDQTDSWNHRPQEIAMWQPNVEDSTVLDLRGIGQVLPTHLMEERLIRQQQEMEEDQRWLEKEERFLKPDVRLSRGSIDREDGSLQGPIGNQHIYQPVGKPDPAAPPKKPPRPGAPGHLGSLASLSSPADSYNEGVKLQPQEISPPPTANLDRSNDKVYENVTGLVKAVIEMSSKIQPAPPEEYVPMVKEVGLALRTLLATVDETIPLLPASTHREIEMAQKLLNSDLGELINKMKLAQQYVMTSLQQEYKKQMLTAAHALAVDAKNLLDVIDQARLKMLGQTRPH

In the case of `CC(C)(C)c1nc(-c2cccc(NS(=O)(=O)c3c(F)cccc3F)c2F)c(-c2ccnc(N)n2)s1` [Dabrafenib], in the assay with ERK, the ERK activity entry is “blockage”. Also, the “FAK tyrosine (Y) 397 auto-phosphorylation” value at FAK is “increased”. The “integrin levels (cell surface β3)” value with β3 integrin (NHM) is given as “not”; with β3 integrin (most melanoma cells) it was “reduced”. For the same molecule, the “integrin levels (cell surface β1)” value is listed as “not” in the assay with β1 integrin (NHM) and “reduced” in the assay with β1 integrin (most melanoma cells).
Consider `CS(=O)(=O)c1cccc(CNc2nc(Nc3ccc4c(c3)CCC(=O)N4)ncc2C(F)(F)F)c1` [PF-573228], for which the ERK activity entry in the assay with ERK is listed as “induce”. In addition, in the assay with β3 integrin (B-rafV600E melanoma cells), the “β3 integrin surface levels” value is listed as “induced”. The entries for the “β1 integrin surface levels” value with β1 integrin (B-raf wild-type melanoma cells) and with β1 integrin (B-rafV600E melanoma cells) were “not” and “induced”, respectively.
